Patent US12122761B2, “2-azaspiro[3.4]octane derivatives as M4 agonists” (NOVARTIS AG, priority 2019, dated 2024)

Legend:
[1] = target: T1, human cloned CHRM4 receptor (M4_CHO cells) (Homo sapiens, UniProt P08173); assay: CHRM4 Ca++ Flux Assay (agonist mode, FDSS 7000EX); assay type: cell-based; conditions: for Emax: Percent Activity, read-out: M4 FDSS PA; for EC50: geometric mean if tested more than once, read-out: M4 FDSS EC50
T1 construct: expressed in transfected cells; host or cells: CHO-K1
T1 sequence (P08173 1-479): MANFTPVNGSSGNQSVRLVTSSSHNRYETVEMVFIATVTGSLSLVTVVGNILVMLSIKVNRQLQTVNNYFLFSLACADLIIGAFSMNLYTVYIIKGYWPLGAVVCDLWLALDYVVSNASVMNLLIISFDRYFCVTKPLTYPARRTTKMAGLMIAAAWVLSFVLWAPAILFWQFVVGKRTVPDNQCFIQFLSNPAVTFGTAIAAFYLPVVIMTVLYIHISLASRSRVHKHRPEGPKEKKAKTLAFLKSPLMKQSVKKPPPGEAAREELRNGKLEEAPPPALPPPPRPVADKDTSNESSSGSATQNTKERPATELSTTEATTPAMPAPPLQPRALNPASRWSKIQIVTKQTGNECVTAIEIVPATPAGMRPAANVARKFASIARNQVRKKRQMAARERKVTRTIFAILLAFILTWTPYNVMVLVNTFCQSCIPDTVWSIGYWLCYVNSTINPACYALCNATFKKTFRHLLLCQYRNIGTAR
Procedure, shortened: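 Agonist-mode response was expressed as percent of the Carbachol EC100 and fitted with four-parameter nonlinear regression over an 11-point triplicate dose series. Intracellular Ca++ was tracked for 3 min by fluorescent dye in CHO-K1 cells stably expressing human CHRM4. Cells were preincubated 60 min with 20 μM ATP in buffer containing 2.5 mM probenecid.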

[2] = target: T2, human cloned CHRM3 receptor (M3_CHO cells) (Homo sapiens, UniProt P20309); assay: CHRM3 Ca++ Flux Assay (agonist mode, FDSS 7000EX); assay type: cell-based; conditions: for Emax: Percent Activity measured to EC100 of Carbachol, read-out: M3 FDSS PA; for EC50: agonist mode, geometric mean if tested more than once, read-out: M3 FDSS EC50
T2 construct: expressed in transfected cells; host or cells: CHO-K1
T2 sequence (P20309 whole entry): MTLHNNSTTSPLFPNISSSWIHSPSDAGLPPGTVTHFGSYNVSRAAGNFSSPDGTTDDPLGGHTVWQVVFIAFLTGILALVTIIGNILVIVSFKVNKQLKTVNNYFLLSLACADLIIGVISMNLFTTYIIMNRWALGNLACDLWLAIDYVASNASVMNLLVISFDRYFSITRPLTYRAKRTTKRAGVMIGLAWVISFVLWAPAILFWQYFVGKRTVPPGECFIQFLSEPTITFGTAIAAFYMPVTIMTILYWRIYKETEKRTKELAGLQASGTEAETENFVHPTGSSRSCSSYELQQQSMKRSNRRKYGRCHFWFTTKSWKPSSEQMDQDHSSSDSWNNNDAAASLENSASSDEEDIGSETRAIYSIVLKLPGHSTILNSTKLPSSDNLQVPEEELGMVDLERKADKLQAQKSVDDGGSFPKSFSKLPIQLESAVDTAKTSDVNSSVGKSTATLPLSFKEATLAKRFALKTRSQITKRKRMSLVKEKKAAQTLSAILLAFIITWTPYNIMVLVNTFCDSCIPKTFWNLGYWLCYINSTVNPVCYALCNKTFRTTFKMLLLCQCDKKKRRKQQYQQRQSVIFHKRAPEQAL
Procedure, shortened: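 Agonist-mode calcium flux: 11-point dose responses, triplicate wells, fluorescence followed for 3 minutes. Cells are M3_CHO or M5_CHO lines (human receptors) with Ca++ indicator in probenecid-containing HEPES/HBSS buffer. Percent activity is referenced to carbachol EC100, and curves come from four-parameter nonlinear regression.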

| Emax [1] [%] | EC50 [1] [nM] | Emax [2] [%] | EC50 [2] [nM] | Structure (SMILES) |
| --- | --- | --- | --- | --- |
| 84 | 22 | 0 | > 25000 | Fc1ccc(N2CC3(CC[C@@H](N4CCC(c5ccccc5C5CCOCC5)CC4)C3)C2)cn1 [Example 5CC, (R)-2-(6-fluoropyridin-3-yl)-6-(4-(2-(tetrahydro-2H-pyran-4-yl)phenyl)piperidin-1-yl)-2-azaspiro[3.4]octane] |
| 53 | 11 | 0 | > 25000 | CC(C)Oc1cc(F)ccc1C1CCN([C@@H]2CCC3(C2)CN(C(=O)C2COC2)C3)CC1 [Example 6D, (R)-(6-(4-(4-fluoro-2-isopropoxyphenyl)piperidin-1-yl)-2-azaspiro[3.4]octan-2-yl)(oxetan-3-yl)methanone] |
| 93 | 3 | 0 | > 25000 | c1ccc(C2CCOC2)c(C2CCN([C@@H]3CCC4(C3)CN(c3nnco3)C4)CC2)c1 (stereo partly drawn) [Example 2K, 2-((6R)-6-(4-(2-(tetrahydrofuran-3-yl)phenyl)piperidin-1-yl)-2-azaspiro[3.4]octan-2-yl)-1,3,4-oxadiazole] |
| 44 | 42 | 0 | > 25000 | COCCOc1ccccc1C1CCN([C@@H]2CCC3(C2)CN(c2ccnnc2)C3)CC1 [Example 5Z, (R)-6-(4-(2-(2-methoxyethoxy)phenyl)piperidin-1-yl)-2-(pyridazin-4-yl)-2-azaspiro[3.4]octane] |
| 49 | 2 | 0 | > 25000 | O=C(C1COC1)N1CC2(CC[C@@H](N3CCC(c4ccccc4OCC(F)F)CC3)C2)C1 [Example 7JJ, (R)-(6-(4-(2-(2,2-difluoroethoxy)phenyl)piperidin-1-yl)-2-azaspiro[3.4]octan-2-yl)(oxetan-3-yl)methanone] |
| 30 | 18 | 0 | > 25000 | COc1ccccc1C1CCN([C@@H]2CCC3(C2)CN(c2nc(C)ns2)C3)CC1 [Example 3M, (R)-5-(6-(4-(2-methoxyphenyl)piperidin-1-yl)-2-azaspiro[3.4]octan-2-yl)-3-methyl-1,2,4-thiadiazole] |
| 48 | 8 | 0 | > 25000 | CC(C)(O)CCOc1ccccc1C1CCN([C@@H]2CCC3(C2)CN(c2nncs2)C3)CC1 [Example 3H, (R)-4-(2-(1-(2-(1,3,4-thiadiazol-2-yl)-2-azaspiro[3.4]octan-6-yl)piperidin-4-yl)phenoxy)-2-methylbutan-2-ol] |
| 60 | 6 | 0 | > 25000 | COCCOc1ccccc1C1CCN([C@@H]2CCC3(C2)CN(c2nncs2)C3)CC1 [Example 3F, (R)-2-(6-(4-(2-(2-methoxyethoxy)phenyl)piperidin-1-yl)-2-azaspiro[3.4]octan-2-yl)-1,3,4-thiadiazole] |
| 72 | 1 | 0 | > 25000 | FC1(COc2ccccc2C2CCN([C@@H]3CCC4(C3)CN(c3nnco3)C4)CC2)CCOCC1 [Example 2D, (R)-2-(6-(4-(2-((4-fluorotetrahydro-2H-pyran-4-yl)methoxy)phenyl)piperidin-1-yl)-2-azaspiro[3.4]octan-2-yl)-1,3,4-oxadiazole] |
| 50 | 6 | 0 | > 25000 | FC1(COc2ccccc2C2CCN([C@@H]3CCC4(C3)CN(c3nncs3)C4)CC2)CCOCC1 [Example 1J, (R)-2-(6-(4-(2-((4-fluorotetrahydro-2H-pyran-4-yl)methoxy)phenyl)piperidin-1-yl)-2-azaspiro[3.4]octan-2-yl)-1,3,4-thiadiazole] |
| 44 | 4 | 0 | > 25000 | CC(C)(F)COc1ccccc1C1CCN([C@@H]2CCC3(C2)CN(C(=O)C2COC2)C3)CC1 [Example 7B, (R)-(6-(4-(2-(2-fluoro-2-methylpropoxy)phenyl)piperidin-1-yl)-2-azaspiro[3.4]octan-2-yl)(oxetan-3-yl)methanone] |

| Structure (SMILES) | Emax [1] [%] | EC50 [1] [nM] | Emax [2] [%] | EC50 [2] [nM] |
| --- | --- | --- | --- | --- |
| O=C(C1COC1)N1CC2(CC[C@@H](N3CCC(c4ccccc4OC4CCC4)CC3)C2)C1 [Example 7H, (R)-(6-(4-(2-cyclobutoxyphenyl)piperidin-1-yl)-2-azaspiro[3.4]octan-2-yl)(oxetan-3-yl)methanone] | 70 | 4 | 0 | > 25000 |
